Experimental data published in patent US20190105367A1, “ANTIMICROBIAL 4-OXOQUINOLIZINES” (Emergent Product Development Gaithersburg Inc., priority 2011, published 2019).
Converted amounts (≈) assume the structure as drawn. Where two headings read alike, the source gives them in different places.

What was measured:
A. baumannii A401 [1] = assay: MIC without and with sub-inhibitory polymyxin B (Example 4); type: cell-based, Acinetobacter baumannii; settings: for MIC: Acinetobacter baumannii
A. baumannii ATCC 19606 [2] = assay: as above; type: cell-based, Acinetobacter baumannii; settings: for MIC without PB/MIC + PB: A. baumannii ATCC 19606; for MIC: Acinetobacter baumannii
A. baumannii J2 = assay: as above; type: cell-based, Acinetobacter baumannii; settings: for MIC without PB/MIC + PB: A. baumannii J2; for MIC: Acinetobacter baumannii
A. baumannii NCTC 13301 [3] = assay: Preliminary MBC without and with sub-inhibitory polymyxin B (Example 4); type: cell-based, Acinetobacter baumannii; settings: Acinetobacter baumannii
Summary of the method: (§1)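 Incubation 18-20 h, 37° C. MBC = lowest conc. with ~90% fewer colonies than positive control (single/no colonies).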

A. baumannii A473 [4] = assay: as above; type: cell-based, Acinetobacter baumannii; settings: Acinetobacter baumannii, A473, A. baumannii A473, +0.06 μg/ml PB, 2nd experiment, read-out: MBC
Summary of the method: as §1

A. baumannii A14 [5] = assay: as above; type: cell-based, Acinetobacter baumannii; settings: 2nd experiment
Summary of the method: as §1

A. baumannii A390 [6] = assay: as above; type: cell-based, Acinetobacter baumannii; settings: Acinetobacter baumannii, A390, A. baumannii A390, +0.06 μg/ml PB, 2nd experiment, read-out: MBC
Summary of the method: as §1

A. baumannii A472 [7] = assay: as above; type: cell-based, Acinetobacter baumannii; settings: Acinetobacter baumannii, preliminary MBC
A. baumannii NCTC 13301 [8] = assay: MIC without and with sub-inhibitory polymyxin B (Example 4); type: cell-based, Acinetobacter baumannii; settings: +[…] PB, 2nd experiment
A. baumannii NCTC 13301 [9] = assay: as above; type: cell-based, Acinetobacter baumannii
A. baumannii ATCC 19606 [10] = assay: Preliminary MBC without and with sub-inhibitory polymyxin B (Example 4); type: cell-based, Acinetobacter baumannii; settings: Acinetobacter baumannii
A. baumannii A329 [11] = assay: as above; type: cell-based, Acinetobacter baumannii; settings: Acinetobacter baumannii, A329, A. baumannii A329, +0.06 μg/ml PB, 2nd experiment, read-out: MBC
A. baumannii A329 [12] = assay: MIC without and with sub-inhibitory polymyxin B (Example 4); type: cell-based, Acinetobacter baumannii; settings: A. baumannii A329; +0.06 μg/ml PB; 2nd experiment
A. baumannii A387 [13] = assay: as above; type: cell-based, Acinetobacter baumannii; settings: for MIC without PB/MIC + PB: A. baumannii A387
[14] = tested on: strains of A. baumannii and one strain of Acinetobacter sp.; assay: MIC with sub-inhibitory concentrations (0.25x MIC) of polymyxin B, panel of Acinetobacter strains (Example 4); type: cell-based
A. baumannii A473 [15] = assay: MIC without and with sub-inhibitory polymyxin B (Example 4); type: cell-based, Acinetobacter baumannii; settings: +0.06 μg/ml PB, 2nd experiment
A. baumannii A489 [16] = assay: as above; type: cell-based, Acinetobacter baumannii; settings: for MIC without PB/MIC + PB: A. baumannii A489; for MIC: Acinetobacter baumannii
A. baumannii A401 [17] = assay: Preliminary MBC without and with sub-inhibitory polymyxin B (Example 4); type: cell-based, Acinetobacter baumannii; settings: Acinetobacter baumannii
A. baumannii A14 [18] = assay: MIC without and with sub-inhibitory polymyxin B (Example 4); type: cell-based, Acinetobacter baumannii; settings: 2nd experiment
A. baumannii A472 [19] = assay: as above; type: cell-based, Acinetobacter baumannii; settings: for MIC: Acinetobacter baumannii
A. baumannii A390 [20] = assay: as above; type: cell-based, Acinetobacter baumannii; settings: +0.06 μg/ml PB, 2nd experiment
A. baumannii A489 [21] = assay: Preliminary MBC without and with sub-inhibitory polymyxin B (Example 4); type: cell-based, Acinetobacter baumannii; settings: Acinetobacter baumannii, preliminary MBC
[22] = tested on: Acinetobacter sp. (H064200250); assay: MIC without and with sub-inhibitory polymyxin B (Example 4); type: cell-based; settings: for MIC: Acinetobacter
A. baumannii A387 [23] = assay: Preliminary MBC without and with sub-inhibitory polymyxin B (Example 4); type: cell-based, Acinetobacter baumannii; settings: Acinetobacter baumannii
[24] = ratio, PB 0.06 μg/ml, 1st experiment
[25] = A. baumannii A14, +0.06 μg/ml PB

SMILES: Cc1c(-c2cc(Cl)c(N)c(Cl)c2)ccn2c(=O)c(C(=O)O)cc(C3CC3)c12 [Compound 3, 8-(3,5-dichloro-4-amino-phenyl)-1-cyclopropyl-9-methyl-4-oxo-quinolizine-3-carboxylic acid]
- MIC without PB/MIC + PB (A. baumannii A401 [1]; A baumannii A 401, ratio, PB 0.06 μg/ml, 1st experiment): 64
- MIC (A. baumannii A401 [1]; A401, A baumannii A 401, +0.06 μg/ml PB, 2nd experiment, read-out: MIC): 0.125 µg/mL (≈ 0.31 µM)
- MIC (A. baumannii A401 [1]; A401, read-out: MIC +0.06 μg/ml PB, A baumannii A 401, +0.06 μg/ml polymyxin B, 1st experiment): 0.125 µg/mL
- MIC without PB/MIC + PB (A. baumannii ATCC 19606 [2]; +0.06 μg/ml PB, 2nd experiment): ≥8
- MIC without PB/MIC + PB (A. baumannii ATCC 19606 [2]; [24]): ≥8
- MIC (A. baumannii ATCC 19606 [2]; ATCC19606, A. baumannii ATCC 19606, +0.06 μg/ml PB, 2nd experiment, read-out: MIC): ≤ 0.03 µg/mL
- MIC (A. baumannii ATCC 19606 [2]; ATCC19606, read-out: MIC +0.06 μg/ml PB, A. baumannii ATCC 19606, +0.06 μg/ml polymyxin B, 1st experiment): ≤ 0.03 µg/mL
- MIC without PB/MIC + PB (A. baumannii J2; +[…] PB, 2nd experiment): ≥1024
- MIC without PB/MIC + PB (A. baumannii J2; ratio, PB […], 1st experiment): 64
- MIC (A. baumannii J2; J2, A. baumannii J2, +[…] PB, 2nd experiment, read-out: MIC): ≤ 0.03 µg/mL
- MIC (A. baumannii J2; J2, read-out: MIC +[…] PB, A. baumannii J2, +[…] polymyxin B, 1st experiment): 0.125 µg/mL (≈ 0.31 µM)
- MBC (A. baumannii NCTC 13301 [3]; NCTC13301, A. baumannii NCTC 13301, +[…] PB, preliminary MBC, 2nd experiment, read-out: MBC): ≤ 0.03 µg/mL
- MBC (A. baumannii NCTC 13301 [3]; NCTC13301, read-out: MBC +[…] PB): 0.5 µg/mL (≈ 1.24 µM)
- MBC (A. baumannii A473 [4]): 0.06 µg/mL (≈ 0.149 µM)
- MBC (A. baumannii A14 [5]; [25]): 0.125 µg/mL (≈ 0.31 µM)
- MBC (A. baumannii A14 [5]; Acinetobacter baumannii, A14, A. baumannii A14, without PB, read-out: MBC): > 32 µg/mL
- MBC (A. baumannii A390 [6]): 0.125 µg/mL (≈ 0.31 µM)
- MBC (A. baumannii A472 [7]; A472, A. baumannii A472, +[…] PB, 2nd experiment, read-out: MBC): ≤ 0.03 µg/mL
- MBC (A. baumannii A472 [7]; A472, read-out: MBC +[…] PB, A. baumannii A472, +[…] polymyxin B, 1st experiment): 0.25 µg/mL (≈ 0.62 µM)
- MIC without PB/MIC + PB (A. baumannii NCTC 13301 [8]; A. baumannii NCTC 13301): ≥1024
- MIC (A. baumannii NCTC 13301 [8]; Acinetobacter baumannii, NCTC13301, A. baumannii NCTC 13301, read-out: MIC): ≤ 0.03 µg/mL
- MIC without PB/MIC + PB (A. baumannii NCTC 13301 [9]; A. baumannii NCTC 13301, ratio, PB […], 1st experiment): ≥64
- MIC (A. baumannii NCTC 13301 [9]; Acinetobacter baumannii, NCTC13301, read-out: MIC +[…] PB): 0.5 µg/mL (≈ 1.24 µM)
- MBC (A. baumannii ATCC 19606 [10]; ATCC19606, A. baumannii ATCC 19606, +0.06 μg/ml PB, 2nd experiment, read-out: MBC): ≤ 0.03 µg/mL
- MBC (A. baumannii ATCC 19606 [10]; ATCC19606, read-out: MBC +0.06 μg/ml PB, A. baumannii ATCC 19606, +0.06 μg/ml polymyxin B, 1st experiment): ≤ 0.03 µg/mL
- MBC (A. baumannii A329 [11]): 0.25 µg/mL (≈ 0.62 µM)
- MIC without PB/MIC + PB (A. baumannii A329 [12]): 32
- MIC without PB/MIC + PB (A. baumannii A387 [13]; +0.06 μg/ml PB, 2nd experiment): ≥32
- MIC without PB/MIC + PB (A. baumannii A387 [13]; [24]): ≥32
- MIC (A. baumannii A387 [13]; Acinetobacter baumannii, A387, read-out: MIC +0.06 μg/ml PB, A. baumannii A387, +0.06 μg/ml polymyxin B, 1st experiment): ≤ 0.03 µg/mL
- MIC range with PB (0.25x MIC) Oct. 1, 2008 n = 8 ([14]; 1st experiment, […] polymyxin B, ATCC 19606, A329, A390 and A473 not taken): ≤0.03 to 1 µg/mL
- MIC range with PB (0.25x MIC) Oct. 14, 2008 n = 11 ([14]; 2nd experiment, 0.06 μg/ml polymyxin B, all strains except the ATCC strain): ≤0.03 to 0.5 µg/mL
- MIC without PB/MIC + PB (A. baumannii A473 [15]; A. baumannii A473): ≥256
- MIC (A. baumannii A473 [15]; Acinetobacter baumannii, A473, A. baumannii A473, read-out: MIC): ≤ 0.03 µg/mL
- MIC without PB/MIC + PB (A. baumannii A489 [16]; +[…] PB, 2nd experiment): ≥128
- MIC without PB/MIC + PB (A. baumannii A489 [16]; ratio, PB […], 1st experiment): 64
- MIC (A. baumannii A489 [16]; A489, A. baumannii A489, +[…] PB, 2nd experiment, read-out: MIC): ≤ 0.03 µg/mL
- MIC (A. baumannii A489 [16]; A489, read-out: MIC +[…] PB, A. baumannii A489, +[…] polymyxin B, 1st experiment): 0.06 µg/mL (≈ 0.149 µM)
- MBC (A. baumannii A401 [17]; A401, A baumannii A 401, +0.06 μg/ml PB, 2nd experiment, read-out: MBC): 0.125 µg/mL (≈ 0.31 µM)
- MBC (A. baumannii A401 [17]; A401, read-out: MBC +0.06 μg/ml PB, A baumannii A 401, +0.06 μg/ml polymyxin B, 1st experiment): 0.125 µg/mL
- MIC (A. baumannii A14 [18]; [25]): 0.125 µg/mL (≈ 0.31 µM)
- MIC without PB/MIC + PB (A. baumannii A14 [18]; [25]): ≥256
- MIC (A. baumannii A14 [18]; Acinetobacter baumannii, A14, A. baumannii A14, without PB, read-out: MIC): > 32 µg/mL
- MIC without PB/MIC + PB (A. baumannii A472 [19]; A. baumannii A472, ratio, PB […], 1st experiment): 64
- MIC (A. baumannii A472 [19]; A472, A. baumannii A472, +[…] PB, 2nd experiment, read-out: MIC): ≤ 0.03 µg/mL
- MIC (A. baumannii A472 [19]; A472, read-out: MIC +[…] PB, A. baumannii A472, +[…] polymyxin B, 1st experiment): 0.5 µg/mL (≈ 1.24 µM)
- MIC without PB/MIC + PB (A. baumannii A390 [20]; A. baumannii A390): ≥256
- MIC (A. baumannii A390 [20]; Acinetobacter baumannii, A390, A. baumannii A390, read-out: MIC): 0.125 µg/mL (≈ 0.31 µM)
- MBC (A. baumannii A489 [21]; A489, A. baumannii A489, +[…] PB, 2nd experiment, read-out: MBC): ≤ 0.03 µg/mL
- MBC (A. baumannii A489 [21]; A489, read-out: MBC +[…] PB, A. baumannii A489, +[…] polymyxin B, 1st experiment): 0.06 µg/mL (≈ 0.149 µM)
- MIC without PB/MIC + PB ([22]; Acinetobacter spp. H064200250 (OXA51), +[…] PB, 2nd experiment): 256
- MIC without PB/MIC + PB ([22]; Acinetobacter spp. H064200250, ratio, PB […], 1st experiment): 16
- MIC ([22]; Acinetobacter spp. H064200250 (OXA51), +[…] PB, 2nd experiment, read-out: MIC): 0.06 µg/mL (≈ 0.149 µM)
- MIC ([22]; read-out: MIC +[…] PB, Acinetobacter spp. H064200250, +[…] polymyxin B, 1st experiment): 0.5 µg/mL (≈ 1.24 µM)
- MBC (A. baumannii A387 [23]; A387, A. baumannii A387, +0.06 μg/ml PB, 2nd experiment, read-out: MBC): ≤ 0.03 µg/mL
- MBC (A. baumannii A387 [23]; A387, read-out: MBC +0.06 μg/ml PB, A. baumannii A387, +0.06 μg/ml polymyxin B, 1st experiment): 0.25 µg/mL
